Measurements reported in patent US20050245465A1, “Compounds for treating Alzheimer's disease and for inhibiting beta-amyloid peptitde production” (priority 2004, published 2005).
Entries after “also recorded” stand apart in the source; their conditions may differ. Like-named read-outs stand apart in the source and are kept apart here.

What was measured:
[1] = system: CHO cells expressing human APP; assay: Secreted Aβ40/Aβ42 ELISA in medium of CHO-APP cells; format: cell-based, Chinese hamster; parameters: key to Aβ42-lowering activity: Aβ42-lowering activity (“Yes”); no profound effects (“No”); non-determined (“ND”); Ginsenosides that affected cell viability are indicated as “Cytotoxic.”; conditions: for Aβ42-lowering activity: Tables 1-3; for secretion of Aβ42 (initial screening): heat-processing derived ginsenosides; for production of Aβ42 in cells (summary statement): mammalian cells, in vitro; for Aβ42 in the medium, dose-dependence: CHO cells expressing human APP; for generation of Aβ42 (Aβ42 levels in the medium, ELISA, normalized to intracellular full-length APP): CHO cells stably transfected with human APP695, 50 μg/ml, 8 hrs; for Aβ42 vs. Aβ40 in the medium (preference): normalized to non-treated and vehicle-treated cells
Protocol: The CHO cells were treated with the indicated compounds (at 50 μg/ml) for 8 hrs. Aβ42 levels in the medium were measured by ELISA and normalized to intracellular full-length APP.
The potential effects of ginsenosides and their analogues in treating AD were examined. First, a number of ginsenosides were screened based on their effects on Aβ generation. The effects of various ginsenosides on Aβ (e.g., Aβ40 and Aβ42) production was initially accessed by incubating the Chinese hamster ovary (CHO) cells expressing human APP(CHO-APP cells) with each ginsenoside purified from unprocessed ginseng (known as “white ginseng”). These representative ginsenosides included Rb1, Rb2, Rc, Rd, Re, Re, Rg1 and Rg2 and differ in their side chains and sugar moieties.
After 8 hours of incubation, the media were collected and the levels of secreted Aβ40 and Aβ42 were determined by ELISA.
Steaming ginseng at high temperature gave rise to additional ginsenosides with enhanced pharmacological activity, including (20S)Rg3, Rk1 and Rg5 (22-25). Next, the effects of these heat-processing derived ginsenosides (e.g., (20S)Rg3, Rh1, Rh2, Rk1, Rg6, Rg5) on Aβ40 and Aβ42 generation were tested. […] In contrast, Aβ42 levels were not affected by (20R)Rg3, Rh1, and Rg6. Aβ40 levels were not changed by treatment with any of the ginsenosides tested. The potency of Aβ42-lowering activity was highest with Rk1 and (20S)Rg3. […] The secretion of Aβ40 was affected by treatment with Rk1 only at very high concentration (˜100 μM) and cell viability was not affected by treatment of Rk1 under these conditions (up to 100 μM, 8 hour treatment; data not shown). […] Overnight treatment with Rgk351, Rk1, and Rg5 also reduce Aβ42 production in CHO-APP cells (FIG. 12B). […] These studies provide a structure-activity relationship between the chemical structures of ginsenosides and Aβ42-lowering activity, further providing the basis for designing additional Aβ42-lowering analogues as well as for defining a class of compounds that harbor Aβ42-lowering activity.

[2] = system: CHO-APP/PS1 cells; assay: Secreted Aβ40/Aβ42 ELISA in CHO-APP/PS1 cells; format: cell-based, Chinese hamster; conditions: for Aβ42 levels: CHO cells co-expressing human APP with wild-type PS1 or FAD mutant PS1 (delta E9, L286V)
Protocol: (§1) FIG. 10 depicts the effects of native ginsenosides on Aβ42 production. CHO cells stably transfected with human APP695 together with either wild-type (A, CHO-APP/PS1 cells) or ΔE9 FAD mutant (B, CHO-APP/ΔE9PS1 cells) forms of PS1 were used. Cells were treated with the indicated compounds (at 50 μM) for 8 hrs. Levels of secreted Aβ40 and Aβ42 in the medium were determined by ELISA and normalized to intracellular full-length APP. In CHO-APP/PS1 cells, average Aβ amounts in control samples were 320 pM for Aβ40 and 79 pM for Aβ42. The relative levels of Aβ and Aβ42 were normalized to values obtained from non-treated and vehicle-treated cells and are shown as % to control+s.d.). One of three representative experiments are shown.
(§2) CHO-APP/PS1 (A) and CHO-APP/ΔE9PS1 (B) cells were treated with the indicated compounds at 50 μM for 8 hrs and the levels of secreted Aβ40 and Aβ42 were determined as described in FIG. 1. […] The PS1-ΔE9 FAD mutation diminished the Aβ42 response to Rk1 treatment (B).

[3] = system: CHO-APP/ΔE9PS1 cells; assay: Secreted Aβ40/Aβ42 ELISA in CHO-APP/ΔE9PS1 cells; format: cell-based, Chinese hamster; conditions: 50 μM, 8 hrs
Protocol: as §1, §2
Steaming ginseng at high temperature gave rise to additional ginsenosides with enhanced pharmacological activity, including (20S)Rg3, Rk1 and Rg5 (22-25). Next, the effects of these heat-processing derived ginsenosides (e.g., (20S)Rg3, Rh1, Rh2, Rk1, Rg6, Rg5) on Aβ40 and Aβ42 generation were tested. […] In contrast, Aβ42 levels were not affected by (20R)Rg3, Rh1, and Rg6. Aβ40 levels were not changed by treatment with any of the ginsenosides tested. The potency of Aβ42-lowering activity was highest with Rk1 and (20S)Rg3. […] The secretion of Aβ40 was affected by treatment with Rk1 only at very high concentration (˜100 μM) and cell viability was not affected by treatment of Rk1 under these conditions (up to 100 μM, 8 hour treatment; data not shown). […] Overnight treatment with Rgk351, Rk1, and Rg5 also reduce Aβ42 production in CHO-APP cells (FIG. 12B). […]

[4] = system: γ-secretase; assay: Cell-free γ-secretase assay (CHAPSO-solubilized membrane fractions, Aβ ELISA); format: biochemical; conditions: for Aβ40 and Aβ42 generation in cell-free γ-secretase assay: dose-response
Protocol: (A) CHAPSO-solubilized membrane fractions were incubated with recombinant γ-secretase substrates together with the indicated compounds (at 100 μM) and the levels of Aβ42 and Aβ40 were determined by ELISA as described (27-29). (B) Dose-response of Aβ40 and Aβ42-lowering activity of Rk1 and (20S)Rg3 in a cell-free γ-secretase assay.
Next, the inhibitory effects of Rk1 and (20S)Rg3 on Aβ generation in an in vitro γ-secretase assay was studied. […] In contrast, naproxen, an NSAID without Aβ42-lowering activity, had no effects on Aβ42 production (FIG. 15A).

[5] = system: CHO-APP cells; assay: Mass spectrometric analysis of Aβ species from CHO-APP cells; format: cell-based, Chinese hamster; conditions: mass spectrometry, vs DMSO
Protocol: Note that treatment leads to a decrease in Aβ42 species (1-42), and elevation in both Aβ37 (1-37) and Aβ38 (1-38). Mass spectrometric analysis of Aβ species were performed as previously described (Wang R, Sweeny D, Gandy S E, Sisodia S S. The profile of soluble amyloid β-protein in cultured cell media. J. Bio. Chem. 1996; 271: 31894-31902).

[6] = system: primary embryonic cortical neurons derived from Tg2576 transgenic mice; assay: Aβ40 and Aβ42 secretion in primary embryonic cortical neurons; format: cell-based
Text: Treatment of Rk1 and Rg3 decreased the level of secreted Aβ40 and Aβ42.

[7] = system: APP; assay: Western blot of APP processing in CHO-APP and Neuro2a-APPsw cells; format: cell-based, Chinese hamster and mouse; conditions: cell lysates; for APP C-terminal fragments (γ-secretase substrates): CHO-APP and Neuro2a APPsw cells
Text: FIG. 13. depicts an analysis of APP processing after Rk1 treatment. Steady-state levels of full-length APP and APP C-terminal fragments (APP-CTFs) were examined by Western blot analysis using anti-R1 antibody. […] Correlated Aβ42 levels for each sample are shown in the bottom panel.

[8] = system: CHO cells; assay: Cell viability of treated CHO cells; format: cell-based, Chinese hamster
Protocol: as §2
Tables 1-3 Structure of ginsenosides utilized in the study and their effects on Aβ42 generation. They differ at the two or three side chains attached to the common triterpene backbone known as dammarane. The common structure skeleton for each group of ginsenosides is shown in the top panel. Ginsenosides that harbor Aβ42-lowering activity are indicated in the far right column of the tables: Aβ42-lowering activity (“Yes”), no profound effects (“No”), and non-determined (“ND”). Ginsenosides that affected cell viability are indicated as “Cytotoxic.” Abbreviation for carbohydrates are as follows: Glc, D-glucopyranosyl; Ara (pyr), L-arabinopyranosyl; Ara (fur), L-arabinofuranyosyl; Rha, L-rhamnopyranosyl.
Steaming ginseng at high temperature gave rise to additional ginsenosides with enhanced pharmacological activity, including (20S)Rg3, Rk1 and Rg5 (22-25). Next, the effects of these heat-processing derived ginsenosides (e.g., (20S)Rg3, Rh1, Rh2, Rk1, Rg6, Rg5) on Aβ40 and Aβ42 generation were tested. […] In contrast, Aβ42 levels were not affected by (20R)Rg3, Rh1, and Rg6. […]

[9] = system: γ-secretase; assay: Cell-free generation of intracellular domains (AICD, NICD, p75-ICD) in membrane fractions of 293 cells; format: biochemical; conditions: membrane fractions from 293 cells overexpressing APP, Notch-ΔE or p75-ΔE
Protocol: Membrane fractions isolated from 293 cells overexpressing either APP (A), Notch-ΔE (B) or p75-ΔE (C) and incubated in the presence of indicated compounds: Compound E (CpdE, general γ-secretase inhibitor), Rgk351, Rk1 and sulindac sulfide (SS).
Since the effect of Rk1 was rather selective to Aβ42 (but not Aβ40) in a cell-based assay, the question of whether Rk1 affects other γ-secretase-mediated cleavage events, including the generation of AICD resulted from a transmembrane cleavage of APP distal from either Aβ40 or Aβ42 site, and γ-secretase-mediated intramembrane cleavage of Notch1 or p75 neurotrophin receptor (p75NTR) to yield Notch1 or p75NTR intracellular domains (NICD or p75-ICD, respectively) was tested. The cell-free generation of AICD, NICD and p75-ICD was not affected by incubation with Rgk351 or Rk1 (FIG. 5).

[10] = cell-free γ-secretase assay, read-out: IC50 for Aβ40
[11] = cell-free γ-secretase assay, read-out: IC50 for Aβ42
[12] = overnight treatment, CHO-APP cells

Row | IC50 [4, 10] [µM] | IC50 [4, 11] [µM] | SMILES | potency of Aβ42-lowering activity (comparison among ginsenosides) [1] | Aβ42-lowering activity [1] | secretion of Aβ42 (initial screening) [1] | production of Aβ42 in cells (summary statement) [1] | potency of Aβ42-reducing activity (order) ([2]; 50 μM, 8 hrs) | Aβ42-lowering response in PS1 ΔE9 FAD mutant cells vs PS1 wild-type cells [3] | Aβ40 and Aβ42 generation in cell-free γ-secretase assay [4] | Aβ37 (1-37) and Aβ38 (1-38) [5] | Aβ42 species (1-42) [5] | level of secreted Aβ40 and Aβ42 [6] | Aβ42 in the medium, dose-dependence [1] | generation of Aβ42 (Aβ42 levels in the medium, ELISA, normalized to intracellular full-length APP) [1] | Aβ42 vs. Aβ40 in the medium (preference) ([1]; CHO-APP cells) | Aβ42 production [1, 12] | Aβ42 levels [2] | full-length APP levels [7] | APP C-terminal fragments (γ-secretase substrates) [7] | also measured
1 | 27 ± 4 | 26 ± 7 | CC(C)=CCC[C@](C)(O)[C@H]1CC[C@]2(C)[C@@H]1[C@H](O)C[C@@H]1[C@@]3(C)CC[C@H](O[C@@H]4O[C@H](CO)[C@@H](O)[C@H](O)[C@H]4O[C@@H]4O[C@H](CO)[C@@H](O)[C@H](O)[C@H]4O)C(C)(C)[C@@H]3CC[C@]12C [(20S)Rg3] | highest | Yes | selectively lowered | lower | Rk1>/=(20S)Rg3>Rg5>(20R)Rg3 | diminished | inhibits; also recorded: inhibited both Aβ40 and Aβ42 with a similar potency | elevation | decrease | decreased | – | – | – | – | – | – | – | –
2 | – | – | CC(C)=CC/C=C(\C)[C@H]1CC[C@]2(C)[C@@H]1[C@H](O)C[C@@H]1[C@@]3(C)CC[C@H](O[C@@H]4O[C@H](CO)[C@@H](O)[C@H](O)[C@H]4O[C@@H]4O[C@H](CO)[C@@H](O)[C@H](O)[C@H]4O)C(C)(C)[C@@H]3CC[C@]12C [Rg5] | much smaller as compared to Rgk351 and Rk1; also recorded: less effective | Yes | selectively lowered | lower | Rk1>/=(20S)Rg3>Rg5>(20R)Rg3 | diminished | – | – | – | – | reduced; also recorded: lower Aβ42 in a dose-dependent manner | reduce | preferentially reduced Aβ42 (vs. Aβ40) | reduce | much smaller as compared to Rgk351 and Rk1 | not affected | increased accumulation | –
3 | – | – | CC(C)=CCC[C@](C)(O)[C@H]1CC[C@]2(C)[C@@H]1[C@H](O)C[C@@H]1[C@@]3(C)CC[C@H](O[C@@H]4O[C@H](CO)[C@@H](O)[C@H](O)[C@H]4O)C(C)(C)[C@@H]3CC[C@]12C [Rh2] | – | – | – | – | – | – | – | – | – | – | – | – | – | – | – | – | – | Aβ42-lowering effects ([2]; 50 μM, 8 hrs): exhibited Aβ42-lowering effects; cell viability ([8]; 50 μM treatment): partially affected
4 | 27 ± 3 | 32 ± 5 | C=C(CCC=C(C)C)[C@H]1CC[C@]2(C)[C@@H]1[C@H](O)C[C@@H]1[C@@]3(C)CC[C@H](O[C@@H]4O[C@H](CO)[C@@H](O)[C@H](O)[C@H]4O[C@@H]4O[C@H](CO)[C@@H](O)[C@H](O)[C@H]4O)C(C)(C)[C@@H]3CC[C@]12C [Rk1] | most effective; also recorded: highest | Yes | selectively lowered | lower | Rk1>/=(20S)Rg3>Rg5>(20R)Rg3 | diminished | inhibits; also recorded: inhibited both Aβ40 and Aβ42 with a similar potency | elevation | decrease | decreased | reduced; also recorded: lower Aβ42 in a dose-dependent manner | reduce | preferentially reduced Aβ42 (vs. Aβ40); also recorded: preferentially lowers Aβ42 (vs. Aβ40) | reduce | reduced | not affected; also recorded: did not affect | increased accumulation; also recorded: up-regulated | concentration at which secretion of Aβ40 was affected ([1]; 8 hour treatment): ~100 µM; IC50 ([1]; CHO-APP cells, read-out: IC50 of Aβ42 lowering activity): ~20 µM; Aβ40 production [1, 12]: slightly affected; Aβ42 generation in vitro ([4]; cell-free γ-secretase assay, partially purified γ-secretase complex, 100 μM): inhibit; also recorded: potently inhibited; cell-free generation of AICD, NICD and p75-ICD [9]: does not significantly affect; also recorded: not affected; cell viability ([8]; up to 100 μM, 8 hour treatment): not affected
